Data from the NIST ThermoML archive (doi:10.1021/acs.jced.6b00470).

Key:
[1] = refractive index (other wavelength) (dimensionless); details: 100 kPa, Liquid, Standard Abbe refractometry
[2] = Liquid; for mass density / viscosity: 101.33 kPa; for mass density: Vibrating tube method; for viscosity: Vibrating wire viscometry; for vapor or sublimation pressure: Ebulliometric method (Recirculating still)

COC(=O)c1ccc(C(C)(C)C)cc1 [methyl 4-tert-butylbenzoate]
refractive index, [1]
Details | Wavelength=404.7 nm | Wavelength=435.8 nm | Wavelength=486.1 nm | Wavelength=546.1 nm | Wavelength=587.6 nm | Wavelength=589.3 nm | Wavelength=632.8 nm | Wavelength=644 nm | Wavelength=706.5 nm
293.15 K | 1.53993 | 1.53137 | 1.52182 | 1.51423 | 1.51053 | 1.51039 | 1.50735 | 1.50663 | 1.50334
298.15 K | 1.53745 | 1.52893 | 1.51944 | 1.51188 | 1.5082 | 1.50807 | 1.50504 | 1.50433 | 1.50105
303.15 K | 1.5352 | 1.52672 | 1.51725 | 1.50975 | 1.50608 | 1.50595 | 1.50293 | 1.50222 | 1.49897
308.15 K | 1.53292 | 1.52448 | 1.51505 | 1.50756 | 1.50382 | 1.50368 | 1.50107 | 1.50004 | 1.49686
313.15 K | 1.5307 | 1.52231 | 1.5129 | 1.50548 | 1.50185 | 1.50172 | 1.49872 | 1.49802 | 1.49479
318.15 K | 1.52841 | 1.52004 | 1.5107 | 1.50329 | 1.4997 | 1.49957 | 1.49659 | 1.49589 | 1.49268
323.15 K | 1.52614 | 1.5178 | 1.50849 | 1.50112 | 1.49755 | 1.49742 | 1.49445 | 1.49375 | 1.49056
328.15 K | 1.52383 | 1.51554 | 1.50627 | 1.49894 | 1.49537 | 1.49525 | 1.49225 | 1.49161 | 1.48842
333.15 K | 1.52158 | 1.51332 | 1.50407 | 1.49678 | 1.49326 | 1.49314 | 1.4902 | 1.4895 | 1.48634
338.15 K | 1.51926 | 1.51104 | 1.50186 | 1.4946 | 1.49108 | 1.49096 | 1.48801 | 1.48735 | 1.48419
343.15 K | 1.51699 | 1.50881 | 1.49967 | 1.49246 | 1.48895 | 1.48883 | 1.48591 | 1.48523 | 1.48208
348.15 K | 1.5147 | 1.50655 | 1.49745 | 1.49026 | 1.48678 | 1.48667 | 1.48376 | 1.48309 | 1.47995
353.15 K | 1.51239 | 1.50427 | 1.49523 | 1.48807 | 1.48461 | 1.48449 | 1.48162 | 1.48094 | 1.47781

[2]
Details | mass density [kg/m3] | vapor or sublimation pressure [kPa] | viscosity [mPa·s]
293.15 K | 1008.55 | – | 6.867
298.15 K | 1004.06 | – | 5.867
303.15 K | 999.54 | – | 5.013
308.15 K | 994.01 | – | 4.291
313.15 K | 989.09 | – | 3.687
318.15 K | 983.89 | – | 3.188
323.15 K | 979.29 | – | 2.781
328.15 K | 974.01 | – | 2.451
333.15 K | 969.29 | – | 2.185
338.15 K | 964.47 | – | 1.969
343.15 K | 959.5 | – | 1.79
348.15 K | 954.38 | – | 1.634
353.15 K | 948.71 | – | 1.487
398.3 K | – | 1.21 | –
408.4 K | – | 1.89 | –
411.3 K | – | 2.13 | –
421.3 K | – | 3.19 | –
430.4 K | – | 4.51 | –
434.9 K | – | 5.32 | –
440.6 K | – | 6.53 | –
446.1 K | – | 7.93 | –
448.2 K | – | 8.53 | –
452.4 K | – | 9.87 | –
454.3 K | – | 10.53 | –
457.2 K | – | 11.6 | –
459.7 K | – | 12.61 | –
462.6 K | – | 13.87 | –
464.3 K | – | 14.67 | –
466.3 K | – | 15.67 | –
467.2 K | – | 16.13 | –
470.7 K | – | 18 | –
473.6 K | – | 19.73 | –
475.1 K | – | 20.67 | –
477.9 K | – | 22.53 | –
480.1 K | – | 24.13 | –
482.4 K | – | 25.87 | –
483.3 K | – | 26.53 | –
484.9 K | – | 27.88 | –
486.4 K | – | 29.13 | –
487.9 K | – | 30.4 | –
489.5 K | – | 31.86 | –
490.6 K | – | 32.93 | –
492.4 K | – | 34.66 | –
